{"source": "paper PMC6472409", "about": "“Dishevelled-3 conformation dynamics analyzed by FRET-based biosensors reveals a key role of casein kinase 1” (Nature Communications, 2019)", "assay_type_in_all_cases": "binding", "key": {"[1]": {"biological_target": "T1, PDZ domain of human DVL2 wild type (aa 265–361) (Homo sapiens, UniProt O14641)", "T1 construct": "The PDZ domain of human DVL2 wild type (aa 265–361); His6-tag (N, cleaved yes); lipoyl domain (N, cleaved yes); made in house; host or cells: E. coli BL21 (DE3)", "T1 sequence (O14641 265-361)": "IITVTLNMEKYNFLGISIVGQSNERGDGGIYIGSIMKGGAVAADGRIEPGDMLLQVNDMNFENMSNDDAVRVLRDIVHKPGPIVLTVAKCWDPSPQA", "experiment": "NMR titration with DVL C-terminal peptide, PDZ wild type", "description": "(§1) The PDZ domain of human DVL2 wild type (aa 265–361) and phosphorylation-mimicking variant S286E + S329E were cloned into pET vector containing an N-terminal His6-tag and a lipoyl domain separated by a Tobacco Etch Virus (TEV) protease digestion site from the N-terminus of the inserts. Both proteins were expressed at high yields in E. coli BL21 (DE3) strain (New England Biolabs, #C2527I). For the NMR studies, ^13C- and ^15N-labeled proteins were prepared by growing cells in minimal medium supplemented with ^15NH4Cl (1 g/l) and ^13C6 glucose (2 g/l) as the sole nitrogen and carbon sources, respectively. Cells were grown at 37 °C to an OD600 of approximately 0.8 and protein expression was induced with 0.5 mM IPTG. Cells were lysed by sonication and centrifuged at 15,000g. Three purification steps were used for both proteins: Ni-NTA chromatography followed by overnight TEV cleavage to remove the N-terminal His6-tag and the lipoyl domain, ion exchange chromatography, and size exclusion chromatography. Finally, the untagged PDZ domain wild type or phosphorylation-mimicking variant was concentrated and exchanged to buffer for NMR or binding experiments containing 20 mM HEPES (pH 6.8) and 50 mM KCl. Human CK1ε (aa 1–294) was also cloned into a pET vector and purified using three purification steps as described for the PDZ domain.\n(§2) A 4D HC(CC-TOCSY(CO))NH and a 4D ^13C, ^15N edited HMQC-NOESY-HSQC experiments were recorded at CEITEC Josef Dadok National NMR Centre on a 700 MHz Bruker Avance III spectrometers equipped with ^1H/^13C/^15N TCI cryogenic probe head with z-axis gradients. 4D spectra were processed with SSA package[59] and analyzed with SPARKY. Chemical shift assignments were obtained automatically using 4D-CHAINS[60] and checked manually. NMR titrations were performed in series of ^1H, ^15N HSQC spectra using 100 μM of ^15N-labeled protein (wild type or phosphorylation-mimicking variant) and increasing amounts of C-terminal DVL peptide (pS700) consisted of aa 698–716 from DVL3 (stock concentration of 800 μM). Steady-state^15N-^1H Nuclear Overhauser Effect values were measured under a steady-state condition with a 30 s interscan relaxation delay. Reference spectra and the spectra measured under steady-state conditions were measured in an interleaved manner."}, "[2]": {"biological_target": "T2, PDZ (S286E/S329E) of human DVL2 (Homo sapiens, UniProt O14641, S286E/S329E)", "T2 construct": "The PDZ domain of human DVL2 wild type (aa 265–361) and phosphorylation-mimicking variant S286E + S329E; His6-tag (N, cleaved yes); lipoyl domain (N, cleaved yes); made in house; host or cells: E. coli BL21 (DE3)", "T2 sequence (O14641 265-361 S286E/S329E)": "T1 sequence (O14641 265-361) with S22E, S65E", "experiment": "NMR titration with DVL C-terminal peptide, PDZ phosphorylation-mimicking variant", "description": "as §1, §2"}, "PDZ wild type from DVL2": {"biological_target": "T3, PDZ wild type from DVL2 (Homo sapiens, UniProt O14641)", "T3 construct": "The PDZ domain of human DVL2 wild type (aa 265–361); His6-tag (N, cleaved yes); lipoyl domain (N, cleaved yes); made in house; host or cells: E. coli BL21 (DE3)", "T3 sequence (O14641 265-361)": "T1 sequence (O14641 265-361)", "experiment": "Surface plasmon resonance, PDZ wild type", "conditions": "for Response (R.U.): SPR, equilibrium", "description": "as §1\n(§3) SPR experiments were performed on a Biacore T200 instrument (GE Healthare). The wild type and phosphorylation-mimicking variant of PDZ from DVL2 were immobilized on carboxy-methylated dextran matrix (CM5 chip S Series) using amino coupling. Non-reacted groups were blocked by 1 M ethanolamine. […] The C-terminal DVL peptide (aa 698–716 from DVL3; pS700) was injected at increasing concentrations and long enough to reach steady state. SPR responses were measured and corrected for the response of the blank. Data points were collected from each binding sensogram before the end of the injection (equilibrium) and the dissociation constants were estimated by fitting the response at equilibrium versus the C-terminal peptide concentration using the following equation: Req = C*Rmax/(KD + C), where Req is the binding level in Response Units at different C-terminal peptide concentrations (C), Rmax the response at saturation (fitted), and KD the apparent dissociation constant (fitted)."}, "[3]": {"biological_target": "T4, PDZ (S286E/S329E) from DVL2 (Homo sapiens, UniProt O14641, S286E/S329E)", "T4 construct": "The PDZ domain of human DVL2 wild type (aa 265–361) and phosphorylation-mimicking variant S286E + S329E; His6-tag (N, cleaved yes); lipoyl domain (N, cleaved yes); made in house; host or cells: E. coli BL21 (DE3)", "T4 sequence (O14641 265-361 S286E/S329E)": "T1 sequence (O14641 265-361) with S22E, S65E", "experiment": "Surface plasmon resonance, PDZ phosphorylation-mimicking variant", "conditions": "for Response (R.U.): SPR, equilibrium", "description": "as §1, §3"}, "[4]": {"conditions": "Biacore T200, PDZ immobilized on CM5 chip, steady-state fit, read-out: apparent KD (SPR, one-site binding model)"}}, "note": "Numbering of substitutions follows the chain as printed. Where a SMILES comes first, the peptide text is derived from it. [ ]: non-standard residue; d: D form. pS = N[C@@H](COP(=O)(O)O)C(=O)O"}
{"compound": "CSCC[C@H](NC(=O)[C@@H](NC(=O)[C@H](CC(=O)O)NC(=O)[C@@H](NC(=O)[C@H](Cc1ccccc1)NC(=O)[C@H](Cc1ccccc1)NC(=O)[C@H](CCC(=O)O)NC(=O)[C@H](CO)NC(=O)[C@@H]1CCCN1C(=O)[C@H](CC(N)=O)NC(=O)CNC(=O)[C@H](CCSC)NC(=O)[C@H](C)NC(=O)[C@H](CCSC)NC(=O)[C@H](CCCNC(=N)N)NC(=O)[C@H](Cc1ccccc1)NC(=O)[C@H](COP(=O)(O)O)NC(=O)[C@H](CCC(N)=O)NC(=O)[C@@H](N)CCCNC(=N)N)C(C)C)C(C)C)C(=O)O", "note": "[DVL C-terminal peptide] (H-RQ[pS]FRMAMGNPSEFFVDVM-OH)", "values": [{"measurement": "Δδ (p.p.m.) F277", "setting": "[1]; pFRMA 50 uM", "result": 0.028, "unit": "p.p.m."}, {"measurement": "Δδ (p.p.m.) H342", "setting": "[1]; pFRMA 50 uM", "result": 0.043, "unit": "p.p.m."}, {"measurement": "Δδ (p.p.m.) K301", "setting": "[1]; pFRMA 50 uM", "result": 0.035, "unit": "p.p.m."}, {"measurement": "Δδ (p.p.m.) F277", "setting": "[1]; pFRMA 100 uM", "result": 0.046, "unit": "p.p.m."}, {"measurement": "Δδ (p.p.m.) H342", "setting": "[1]; pFRMA 100 uM", "result": 0.07, "unit": "p.p.m."}, {"measurement": "Δδ (p.p.m.) K301", "setting": "[1]; pFRMA 100 uM", "result": 0.06, "unit": "p.p.m."}, {"measurement": "Δδ (p.p.m.) F277", "setting": "[1]; pFRMA 200 uM", "result": 0.066, "unit": "p.p.m."}, {"measurement": "Δδ (p.p.m.) H342", "setting": "[1]; pFRMA 200 uM", "result": 0.109, "unit": "p.p.m."}, {"measurement": "Δδ (p.p.m.) K301", "setting": "[1]; pFRMA 200 uM", "result": 0.092, "unit": "p.p.m."}, {"measurement": "Δδ (p.p.m.) F277", "setting": "[1]; pFRMA 400 uM", "result": 0.112, "unit": "p.p.m."}, {"measurement": "Δδ (p.p.m.) H342", "setting": "[1]; pFRMA 400 uM", "result": 0.174, "unit": "p.p.m."}, {"measurement": "Δδ (p.p.m.) K301", "setting": "[1]; pFRMA 400 uM", "result": 0.148, "unit": "p.p.m."}, {"measurement": "affinity of phosphorylation-mimicking variant compared with PDZ wt (NMR)", "setting": "[2]; fast exchange peaks, quantitative analysis", "result": "two-fold weaker affinity"}, {"measurement": "Δδ (p.p.m.) F277", "setting": "[2]; pFRMA 50 uM", "result": 0.02, "unit": "p.p.m."}, {"measurement": "Δδ (p.p.m.) H342", "setting": "[2]; pFRMA 50 uM", "result": 0.032, "unit": "p.p.m."}, {"measurement": "Δδ (p.p.m.) K301", "setting": "[2]; pFRMA 50 uM", "result": 0.026, "unit": "p.p.m."}, {"measurement": "Δδ (p.p.m.) F277", "setting": "[2]; pFRMA 100 uM", "result": 0.03, "unit": "p.p.m."}, {"measurement": "Δδ (p.p.m.) H342", "setting": "[2]; pFRMA 100 uM", "result": 0.056, "unit": "p.p.m."}, {"measurement": "Δδ (p.p.m.) K301", "setting": "[2]; pFRMA 100 uM", "result": 0.044, "unit": "p.p.m."}, {"measurement": "Δδ (p.p.m.) F277", "setting": "[2]; pFRMA 200 uM", "result": 0.048, "unit": "p.p.m."}, {"measurement": "Δδ (p.p.m.) H342", "setting": "[2]; pFRMA 200 uM", "result": 0.093, "unit": "p.p.m."}, {"measurement": "Δδ (p.p.m.) K301", "setting": "[2]; pFRMA 200 uM", "result": 0.071, "unit": "p.p.m."}, {"measurement": "Δδ (p.p.m.) F277", "setting": "[2]; pFRMA 400 uM", "result": 0.084, "unit": "p.p.m."}, {"measurement": "Δδ (p.p.m.) H342", "setting": "[2]; pFRMA 400 uM", "result": 0.164, "unit": "p.p.m."}, {"measurement": "Δδ (p.p.m.) K301", "setting": "[2]; pFRMA 400 uM", "result": 0.128, "unit": "p.p.m."}, {"measurement": "Kd", "setting": "PDZ wild type from DVL2; [4]", "result": 305, "unit": "µM"}, {"measurement": "Response (R.U.)", "setting": "PDZ wild type from DVL2; pFRMA 3.125 uM", "result": 3.399, "unit": "R.U."}, {"measurement": "Response (R.U.)", "setting": "PDZ wild type from DVL2; pFRMA 6.25 uM", "result": 3.725, "unit": "R.U."}, {"measurement": "Response (R.U.)", "setting": "PDZ wild type from DVL2; pFRMA 12.5 uM", "result": 4.287, "unit": "R.U."}, {"measurement": "Response (R.U.)", "setting": "PDZ wild type from DVL2; pFRMA 25 uM", "result": 4.98, "unit": "R.U."}, {"measurement": "Response (R.U.)", "setting": "PDZ wild type from DVL2; pFRMA 50 uM", "result": 6.694, "unit": "R.U."}, {"measurement": "Response (R.U.)", "setting": "PDZ wild type from DVL2; pFRMA 100 uM", "result": 9.137, "unit": "R.U."}, {"measurement": "Response (R.U.)", "setting": "PDZ wild type from DVL2; pFRMA 200 uM", "result": 14.3144, "unit": "R.U."}, {"measurement": "Response (R.U.)", "setting": "PDZ wild type from DVL2; pFRMA 400 uM", "result": 24.5768, "unit": "R.U."}, {"measurement": "Kd", "setting": "[3]; [4]", "result": 754, "unit": "µM"}, {"measurement": "Response (R.U.)", "setting": "[3]; pFRMA 3.125 uM", "result": 1.637, "unit": "R.U."}, {"measurement": "Response (R.U.)", "setting": "[3]; pFRMA 6.25 uM", "result": 1.9305, "unit": "R.U."}, {"measurement": "Response (R.U.)", "setting": "[3]; pFRMA 12.5 uM", "result": 2.181, "unit": "R.U."}, {"measurement": "Response (R.U.)", "setting": "[3]; pFRMA 25 uM", "result": 2.621, "unit": "R.U."}, {"measurement": "Response (R.U.)", "setting": "[3]; pFRMA 50 uM", "result": 3.732, "unit": "R.U."}, {"measurement": "Response (R.U.)", "setting": "[3]; pFRMA 100 uM", "result": 5.135, "unit": "R.U."}, {"measurement": "Response (R.U.)", "setting": "[3]; pFRMA 200 uM", "result": 8.677, "unit": "R.U."}, {"measurement": "Response (R.U.)", "setting": "[3]; pFRMA 400 uM", "result": 16.554, "unit": "R.U."}, {"measurement": "peptide affinity of phosphorylation-mimicking variant compared with PDZ wt (SPR)", "setting": "[3]; apparent dissociation constants from SPR", "result": "two-fold lower peptide affinity"}]}
